The text below walks through data of PMC3794980, “Identification of Conserved and HLA Promiscuous DENV3 T-Cell Epitopes” (PLoS Neglected Tropical Diseases, 2013).

Holding throughout (assay): biochemical
What all share (assay type): binding

For test [1], the target named is DRB4*0101 (Homo sapiens, UniProt P01903+P13762, G164S).
Test [2] concerns the target DRB1*1501 (Homo sapiens, UniProt P01903+P01911).
Test [3] deals with DRB1*0404 (Homo sapiens, UniProt P01903+P01911, A100R/A169T/F76Y/I96L/K127E/L162R/M171V/N62H/P40V/Q125Y/R42H/S133A/S149N/S66Y/V209L/W38E).
The target in test [4] is DRB1*0101 (Homo sapiens, UniProt P01903+P01911, A100R/D57E/F55L/F60I/F76Y/I96L/L162R/M171V/P40L/Q125E/R42F/V115G/Y59C).
The target in test [5] is DRB1*0802 (Homo sapiens, UniProt P01903+P01911, A100R/A103L/A169T/F76Y/H45Y/I96F/K41T/L162R/M171V/P40S/Q125H/Q178H/Q39Y/Q99D/R218S/R42G/S66Y/V115G/W38E).
Test [6] deals with DRB1*1101 (Homo sapiens, UniProt P01903+P01911, A100R/A169T/A87E/I96F/K41T/L162R/M171V/P40S/Q125H/Q178H/Q39Y/Q99D/R42S/S66Y/T262R/V115G/W38E).
The target in test [7] is DRB1*1302 (Homo sapiens, UniProt P01903+P01911, A100E/A169T/K41T/L162R/M171V/P40S/Q125H/Q178H/Q39Y/Q99D/R42S/S66N/T262R/V115G/W38E/Y61H). Conditions: competitive inhibition of radiolabeled standard peptide, read-out: Binding Affinity (nM) DRB1*1302.
Test [8] addresses DRB1*0301 (Homo sapiens, UniProt P01903+P01911, A100K/A102G/A103R/A169T/F55Y/I96L/K41T/L162R/M171V/P40S/Q125H/Q178H/Q39Y/R42S/S66N/T106N/T262R/W38E/Y61H).
Test [9] concerns the target DRB3*0101 (Homo sapiens, UniProt P01903+P79483).
The target in test [10] is DRB1*0701 (Homo sapiens, UniProt P01903+P01911, A100R/A102G/A103Q/D57E/D86V/E43K/F76Y/K127E/L162R/M171V/P40G/Q125H/Q99D/R33Q/R42Y/R54Q/S133A/S66F/T210M/V115G/Y107V/Y59L/Y89S).
For test [11], the target named is DRB1*0901 (Homo sapiens, UniProt P01903+P01911, A100R/A103E/D57H/D86V/F55Y/F60I/F76Y/I96F/K127E/L162R/M171V/P40D/Q125H/Q99R/R33Q/R42F/S133A/S66N/T210M/V115G/W38K/Y107V/Y59G/Y89S). The settings on record: competitive inhibition of radiolabeled standard peptide, read-out: Binding Affinity (nM) DRB1*0901.
Test [12] concerns the target DRB1*0401 (Homo sapiens, UniProt P01903+P01911, A100K/A169T/F76Y/I96L/K127E/L162R/M171V/N62H/P40V/Q125Y/R42H/S133A/S149N/S66Y/V115G/V209L/W38E).
The target in test [13] is DRB5*0101 (Homo sapiens, UniProt P01903+Q30154).
For test [14], the target named is DRB1*0405 (Homo sapiens, UniProt P01903+P01911, A100R/A169T/D86S/F76Y/I96L/K127E/L162R/M171V/N62H/P40V/Q125Y/R42H/S133A/S149N/S66Y/V115G/V209L/W38E).

Where two headings read alike, the source gives them in different places. Where no end group is shown, it is not given here.

Sequence of DRB1*0301 (P01903 26-254, other chains not shown): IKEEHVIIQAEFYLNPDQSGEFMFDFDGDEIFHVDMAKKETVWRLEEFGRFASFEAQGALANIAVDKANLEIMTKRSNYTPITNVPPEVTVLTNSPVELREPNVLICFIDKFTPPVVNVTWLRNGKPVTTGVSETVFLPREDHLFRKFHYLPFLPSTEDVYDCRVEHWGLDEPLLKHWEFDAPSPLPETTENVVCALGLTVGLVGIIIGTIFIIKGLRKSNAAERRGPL
Sequence of DRB1*1101 (P01903 26-254, other chains not shown): as above
Sequence of DRB1*1302 (P01903 26-254 limits assumed, other chains not shown): as the sequence (P01903 26-254, other chains not shown) above

For the molecule EGKVVQYENLKYTVI [Envelope 126-140], the IC50 in [1] came out at 59 nM; in test [2], 21 nM; in test [3] it was 6050 nM; in test [4], 980 nM; in test [5], 37 nM; in test [6] it was 8980 nM. Moreover, the IC50 turned out to be 1480 nM in test [7] ('-' distinct from ND); 692 nM in test [8]; 2070 nM in test [9]; 2310 nM in test [10]; 3860 nM in [11] ('-' distinct from ND); 1380 nM in test [12]. In addition, the IC50 is 2470 nM in test [13] and 90 nM in [14].

Regarding `C[C@@H](O)[C@H](NC(=O)[C@H](CO)NC(=O)[C@H](CO)NC(=O)[C@H](Cc1c[nH]cn1)NC(=O)[C@H](CCC(=O)O)NC(=O)[C@H](CCC(=O)O)NC(=O)[C@@H](N)CCCCN)C(=O)N[C@@H](Cc1c[nH]c2ccccc12)C(=O)N[C@@H](Cc1c[nH]cn1)C(=O)N[C@@H](Cc1ccc(O)cc1)C(=O)N[C@@H](CC(=O)O)C(=O)N[C@@H](CC(=O)O)C(=O)N[C@@H](CCC(=O)O)C(=O)N[C@@H](CC(N)=O)C(=O)N1CCC[C@H]1C(=O)N[C@@H](Cc1ccc(O)cc1)C(=O)N[C@@H](CCCCN)C(=O)O` [NS5 284-300], the IC50 came to 14100 nM in test [1]; 5900 nM in [2]; 18200 nM in test [3]; 2100 nM in [4]; 1540 nM in [5]; 1400 nM in [6]. In addition, the IC50 in test [7] (DRB1*1302) turned out to be 2030 nM; in test [8], 9.3 nM; in test [9], 17 nM; in test [10] it was 2490 nM; in [11] (DRB1*0901) it was 8140 nM; in test [12], 306 nM. In addition, the IC50 in test [14] came out at 8690 nM.

As for `CC[C@H](C)[C@H](NC(=O)[C@H](CC(C)C)NC(=O)[C@H](CCCNC(=N)N)NC(=O)CNC(=O)[C@@H](N)CC(N)=O)C(=O)N[C@H](C(=O)N[C@@H](C)C(=O)N[C@@H](CC(N)=O)C(=O)N1CCC[C@H]1C(=O)N[C@H](C(=O)N[C@H](C(=O)N[C@H](C(=O)N[C@@H](CCCCN)C(=O)N[C@@H](CCCCN)C(=O)N[C@@H](CCC(=O)O)C(=O)O)[C@@H](C)O)C(C)C)C(C)C)[C@@H](C)O` [Envelope 346-360], the IC50 in [1] stood at 3000 nM; in [2] it was 332 nM; in test [3] it was 15300 nM; in test [4], 4.5 nM; in test [5], 288 nM; in [6], 10600 nM. Also, the IC50 in test [7] ('-' distinct from ND) is 15 nM; in [8], 216 nM; in [9], 18300 nM; in [10], 68 nM; in test [11] ('-' distinct from ND), 333 nM; in test [12], 343 nM. In test [14], this molecule registered an IC50 of 6740 nM.

Regarding `CC(C)C[C@H](NC(=O)[C@H](C)NC(=O)[C@H](CCC(=O)O)NC(=O)[C@H](Cc1ccccc1)NC(=O)[C@H](CCC(=O)O)NC(=O)[C@H](CC(C)C)NC(=O)[C@H](Cc1ccc(O)cc1)NC(=O)[C@H](CCCNC(=N)N)NC(=O)[C@H](C)NC(=O)CNC(=O)[C@H](CC(C)C)NC(=O)[C@@H](N)Cc1c[nH]c2ccccc12)C(=O)NCC(=O)N[C@@H](Cc1ccccc1)C(=O)N[C@@H](CC(C)C)C(=O)N[C@@H](CC(N)=O)C(=O)N[C@@H](CCC(=O)O)C(=O)O` [NS5 477-493], the IC50 was 274 nM in [1]; 338 nM in [2]; 124 nM in test [3]; 12 nM in [4]; 2280 nM in test [5]; 710 nM in test [6]. The IC50 in test [7] (DRB1*1302) is 9750 nM; in test [8], 2420 nM; in [9], 26 nM; in [10], 26 nM; in test [11] (DRB1*0901), 79 nM; in [12], 67 nM. In test [14], this molecule yielded an IC50 of 54 nM.
